{"source": "paper PMC7228129", "about": "“Evaluation of Developmental Toxicity, Developmental Neurotoxicity, and Tissue Dose in Zebrafish Exposed to GenX and Other PFAS” (Environmental Health Perspectives, 2020)", "key": {"[1]": {"test": "Tissue analysis (internal tissue dose of parent PFAS, bioconcentration factor)", "format": "in vivo, Danio rerio", "details": "for BCFdry: 6-d zebrafish assay; for concentration at 6 dpf: zebrafish (Danio rerio), whole larvae (pools of 10, homogenised), other: waterborne exposure in the well medium, 6 dpf larvae, dry weight 44 μg per larva, read-out: Measured tissue dose", "method": "Zebrafish were exposed to 25.1, 44.8, or 80.0μM ADONA, PFOA, PFESA1, or PFHxA, 14.0, 25.1, or 44.8μM PFHxS, or 1.0, 1.8, or 3.1μM PFOS, or 0.4% DMSO. The highest concentration evaluated was the no observed effect concentration (NOEC) determined in Study 1. In Study 2, zebrafish were exposed to 25.1, 44.8, or 80.0μM GenX Free Acid or 0.4% DMSO. According to the previously described microtiter plate inclusion criterion, 15/15 plates were included in the study. Larvae were anesthetized by rapid cooling in chilled 10% HBSS. Groups of 10 anesthetized larvae were pooled to comprise one biological replicate ( n=4 ) in 500μL of 10% HBSS, flash frozen in liquid nitrogen, and stored at −80°C . In the case of ADONA, n=5 .\nTissue samples were prepared by protein precipitation. Flash frozen samples, consisting of pools of ten 6-dpf zebrafish larvae, were homogenized using ∼100mg of 1.0-mm diameter zirconia/silica beads and a Fast-Prep-24™ homogenizer (MP Biomedicals) in 100μL 0.1M formic acid fortified with the surrogate (i.e., PFNA). Protein was precipitated from the homogenate with 400μL of acetonitrile containing internal standards and separated by centrifugation at 14,000 rpm for 15 min at 4°C. Fifty microliters of the extract was diluted with 200μL aqueous 0.4 mM ammonium formate in the LC vial for analysis. Standards and samples were analyzed with Vanquish UPLC and Orbitrap Fusion mass spectrometer (Thermo Electron) operated in negative ESI mode. ESI source conditions were optimized for the [M-H]^− ion of PFAS as follows: spray voltage −3.5 kV , sheath gas 25 au (arbitrary units), aux gas 6 au, sweep gas 0 au, ion transfer tube temperature 300°C, and vaporizer temperature […]. High-resolution accurate mass (HRAM) MS1 scans were collected with the following parameters: detector type orbitrap, orbitrap resolution 30,000 full width at half maximum (FWHM), normal mass range, Use quadrapole isolation=true , scan range 70–700m/z , radio frequency (RF) lens 60%, automatic gain control (AGC) target 4.00×10^5 , max injection time of 50 ms , 1 microscan, data type set to profile, negative polarity, and source fragmentation disabled. Data-dependent orbitrap MSMS (ddMS2-OT) scans were collected for the [M-H]^− ion [ M-H-CO2 for GenX]^– using a target mass list for the eight PFAS and PFNA surrogate for identity confirmation. The apex detection was set to an expected peak width of 2 s at FWHM and desired apex peak window of 30%. The dynamic exclusion parameters were set to exclude after a one-time, 60-s exclusion duration, low and high mass tolerances of 10 ppm , and exclude isotope was set to true. The intensity threshold for collecting an MSMS scan was set to 2.5E+04 . Fragmentation was done by high-energy collisional dissociation (HCD). The ddMS2-OT scans were collected with the following parameters: orbitrap isolation mode, isolation window of 1.6m/z , isolation offset off, stepped HCD collision energy of 30%±10% , scan range of auto mass-to-charge ratio normal, orbitrap resolution of 30,000 FWHM, first mass 75m/z , max injection time of […], AGC target 5.00×10^4 , inject ions from available parallelizable time set to true, max injection time of 54 ms, 1 microscan, and data type set to centroid. UPLC separation was achieved using ACQUITY UPLC BEH C18 Column, 130Å , 1.7μM , 2.1mm×50mm (Waters Corp P/N 186,002,350) at 50°C with gradient elution at a flow rate of 300μL/min using 0.4 mM ammonium formate in acetonitrile and water with a 10-μL injection. Data collection, integration, calibration, and quantitation were performed using Xcalibur software (version 4.1; Thermo Electron). Concentration for each PFAS analyte was determined by internal standard technique using isotopically labeled internal standards and matrix-matched calibration standards. Quantitative analysis was performed using high-resolution MS1-extracted ion chromatograms. […]"}, "[2]": {"test": "GenX Free Acid stock degradation / stability in DMSO", "format": "physicochemical", "details": "DMSO as diluent/vehicle"}}, "note": "“Also recorded” adds a separate entry of the source. Read-outs that look alike come from different tables or passages of the source."}
{"smiles": "O=C(O)C(F)(OC(F)(F)C(F)(F)C(F)(F)F)C(F)(F)F", "note": "(stereo not drawn) [GenX Free Acid, Perfluoro-2-propoxypropanoic acid]", "values": [{"measurement": "Parent compound in larval zebrafish tissue", "setting": "[1]; GenX Free Acid diluted in DI water (Study 2)", "value": "detectable levels; also recorded: detectable in zebrafish tissue"}, {"measurement": "Parent compound in zebrafish tissue at 6 dpf", "setting": "[1]; GenX Free Acid diluted in DMSO (Study 1)", "value": "undetectable"}, {"measurement": "BCFdry", "setting": "[1]; nominal 25.1 μM in DI water (Study 2)", "value": 0.45, "unit": "L/kg"}, {"measurement": "BCFdry", "setting": "[1]; nominal 44.8 μM in DI water (Study 2)", "value": 0.29, "unit": "L/kg"}, {"measurement": "BCFdry", "setting": "[1]; nominal 80.0 μM in DI water (Study 2)", "value": 0.49, "unit": "L/kg"}, {"measurement": "concentration at 6 dpf", "setting": "[1]; nominal 25.1 μM in DI water (Study 2) daily 0–5 dpf", "value": "2480 ± 660", "unit": "ng/g"}, {"measurement": "concentration at 6 dpf", "setting": "[1]; nominal 44.8 μM in DI water (Study 2) daily 0–5 dpf", "value": "2020 ± 270", "unit": "ng/g"}, {"measurement": "concentration at 6 dpf", "setting": "[1]; nominal 80.0 μM in DI water (Study 2) daily 0–5 dpf", "value": "5110 ± 1490", "unit": "ng/g"}, {"measurement": "Stability in DMSO", "setting": "[2]", "value": "unstable in DMSO; also recorded: not stable in DMSO"}]}
